Data set [1] concerns the target T1, Melanocyte-stimulating hormone receptor (Homo sapiens, UniProt Q01726). The experiment in a line: Agonist potency for human Melanocortin 1 receptor. In kind it is functional.
Target sequence in this assay (Q01726 whole entry): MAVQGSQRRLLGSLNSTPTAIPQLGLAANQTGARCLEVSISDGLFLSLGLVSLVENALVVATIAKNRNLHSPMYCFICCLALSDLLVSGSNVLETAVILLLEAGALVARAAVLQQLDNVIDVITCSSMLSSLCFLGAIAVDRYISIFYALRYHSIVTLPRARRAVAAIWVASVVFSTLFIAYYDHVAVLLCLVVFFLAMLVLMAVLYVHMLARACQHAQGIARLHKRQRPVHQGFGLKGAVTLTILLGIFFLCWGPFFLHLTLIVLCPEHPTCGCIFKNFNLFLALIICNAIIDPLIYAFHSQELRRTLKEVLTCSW
Data set [2] has as its target T2, Melanocortin receptor 4 (Homo sapiens, UniProt P32245). The experiment in a line: Agonist potency towards human Melanocortin 4 receptor. It counts as functional.
Data set [3] in a line: pKa value was evaluated. It counts as physicochemical.
Data set [4] has as its target T2, Melanocortin receptor 4. Kind of data set: Agonist potency towards human Melanocortin 4 receptor at 50 uM. In kind it is functional.
The target in data set [5] is T1, Melanocyte-stimulating hormone receptor. The experiment in a line: Agonist potency towards human Melanocortin 1 receptor at 50 uM. It counts as functional.
Target sequence in this assay (Q01726 whole entry, looked up): as the sequence (Q01726 whole entry) above

The structures appear in SMILES notation.

Our source for the EC50, pKa and Activity values is ChEMBL document CHEMBL1135847, “Structure-activity relationship of linear peptide Bu-His-DPhe-Arg-Trp-Gly-NH(2) at the human melanocortin-1 and -4 receptors: arginine substitution” (Bioorg Med Chem Lett, 2002).

T2 sequence (P32245 whole entry): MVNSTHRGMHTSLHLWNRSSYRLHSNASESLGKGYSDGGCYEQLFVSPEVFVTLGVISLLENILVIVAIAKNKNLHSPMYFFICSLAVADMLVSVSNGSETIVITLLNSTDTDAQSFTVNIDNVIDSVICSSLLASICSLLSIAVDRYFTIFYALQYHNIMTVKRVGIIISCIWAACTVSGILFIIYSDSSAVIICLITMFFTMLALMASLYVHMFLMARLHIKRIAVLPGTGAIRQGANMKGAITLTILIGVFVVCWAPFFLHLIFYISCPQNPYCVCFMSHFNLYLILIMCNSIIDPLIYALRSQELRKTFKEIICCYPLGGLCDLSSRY

Consider `CCCCN[C@@H](Cc1cnc[nH]1)C(=O)N[C@H](Cc1ccccc1)C(=O)N[C@@H](CCCN(C)C)C(=O)N[C@@H](Cc1c[nH]c2ccccc12)C(=O)NCC(N)=O`, for which the EC50 (commonly the concentration needed to bring the measured effect to its halfway point) was 350 nM in data set [1] and 3280 nM on Melanocortin receptor 4 [2].
As to `CCCCN[C@@H](Cc1c[nH]cn1)C(=O)N[C@H](Cc1ccccc1)C(=O)N[C@@H](Cc1c[nH]cn1)C(=O)N[C@@H](Cc1c[nH]c2ccccc12)C(=O)NCC(N)=O`, the EC50 worked out at 1700 nM in data set [1] and 1420 nM at Melanocortin receptor 4 [2].
Consider `CCCCN[C@@H](Cc1cnc[nH]1)C(=O)N[C@H](Cc1ccccc1)C(=O)N[C@@H](CCCNC(N)=NC#N)C(=O)N[C@@H](Cc1c[nH]c2ccccc12)C(=O)NCC(N)=O`, for which, in data set [3], the pKa (in general, the pH at which an ionisable group is half protonated) is roughly 0. In addition, the EC50 in data set [1] stood at 15 nM; on Melanocortin receptor 4 [2], 70 nM.
`CCCCN[C@@H](Cc1c[nH]cn1)C(=O)N[C@H](Cc1ccccc1)C(=O)N[C@@H](CCC/N=C(/N)N[N+](=O)[O-])C(=O)N[C@@H](Cc1c[nH]c2ccccc12)C(=O)NCC(N)=O`: the Activity is 85% at Melanocortin receptor 4 [4] and 40% in data set [5].
For the molecule `CCCCN[C@@H](Cc1cnc[nH]1)C(=O)N[C@H](Cc1ccccc1)C(=O)N[C@@H](CCCNC(N)=O)C(=O)N[C@@H](Cc1c[nH]c2ccccc12)C(=O)NCC(N)=O`, the EC50 worked out at 950 nM in data set [1] and 760 nM on Melanocortin receptor 4 [2].
The corresponding values for `CCCCN[C@@H](Cc1c[nH]cn1)C(=O)N[C@H](Cc1ccccc1)C(=O)N[C@@H](CCCCN(C)C)C(=O)N[C@@H](Cc1c[nH]c2ccccc12)C(=O)NCC(N)=O` are 60 nM and 1670 nM.
`CCCCN[C@@H](Cc1cnc[nH]1)C(=O)N[C@H](Cc1ccccc1)C(=O)N[C@@H](CCCCNCc1ccccc1)C(=O)N[C@@H](Cc1c[nH]c2ccccc12)C(=O)NCC(N)=O`: the EC50 in data set [1] is 85 nM; on Melanocortin receptor 4 [2], 4800 nM.
The corresponding values for `CCCCN[C@@H](Cc1cnc[nH]1)C(=O)N[C@H](Cc1ccccc1)C(=O)N[C@@H](CCCNC(=N)N)C(=O)N[C@@H](Cc1c[nH]c2ccccc12)C(=O)NCC(N)=O` are 10 nM and 20 nM.
The corresponding values for `CCCCN[C@@H](Cc1c[nH]cn1)C(=O)N[C@H](Cc1ccccc1)C(=O)N[C@@H](CCCN)C(=O)N[C@@H](Cc1c[nH]c2ccccc12)C(=O)NCC(N)=O` are 900 nM and 2500 nM.
Molecule `CCCCN[C@@H](Cc1c[nH]cn1)C(=O)N[C@H](Cc1ccccc1)C(=O)N[C@@H](CCCCNC(C)C)C(=O)N[C@@H](Cc1c[nH]c2ccccc12)C(=O)NCC(N)=O` came in with an EC50 in data set [1] of 255 nM. Also, the Activity on Melanocortin receptor 4 [4] was found to be 25%.
For the molecule `CCCCN[C@@H](Cc1cnc[nH]1)C(=O)N[C@H](Cc1ccccc1)C(=O)N[C@@H](CCC(=O)NC(=N)N)C(=O)N[C@@H](Cc1c[nH]c2ccccc12)C(=O)NCC(N)=O`, in data set [3], the pKa is roughly 7. Further, the results for the EC50 (in data set [1]; at Melanocortin receptor 4 [2]) were 1 nM and 10 nM, respectively.
